Holding throughout (conditions): recombinant enzyme
Data set [1] addresses T1, Cytochrome P450 2C9 (Homo sapiens, UniProt P11712). In words: Drug activation in human Hep3B cells assessed as human CYP2C9-mediated drug metabolism-induced cytotoxicity measured as decrease in cell viability at 44 uM pre-incubated with BSO for 18 hrs followed by incubation with compound for 3 hrs in presence of NADPH measured after 24 hrs in absence of compound, CYP3A4 and NADPH by cell titer-glo luminescence assay relative to BSO alone. The format is ADME, cell-based.

Data set [2] has as its target T2, Cytochrome P450 3A4 (Homo sapiens, UniProt P08684). Nature of the data set: Drug activation in human Hep3B cells assessed as human CYP3A4-mediated drug metabolism-induced cytotoxicity measured as decrease in cell viability at 45.8 uM pre-incubated with BSO for 18 hrs followed by incubation with compound for 3 hrs in presence of NADPH measured after 24 hrs in absence of compound, CYP3A4 and NADPH by cell titer-glo luminescence assay relative to BSO alone. The format is ADME, cell-based. A general note: ATP-based viability assays read luminescence as a measure of living cells.

For data set [3], the target named is T3, Cytochrome P450 2D6 (Homo sapiens, UniProt P10635). In words: Drug activation in human Hep3B cells assessed as human CYP2D6-mediated drug metabolism-induced cytotoxicity measured as decrease in cell viability at 54.3 uM pre-incubated with BSO for 18 hrs followed by incubation with compound for 3 hrs in presence of NADPH measured after 24 hrs in absence of compound, CYP3A4 and NADPH by cell titer-glo luminescence assay relative to BSO alone. It counts as ADME, cell-based.
T3 sequence (P10635 whole entry): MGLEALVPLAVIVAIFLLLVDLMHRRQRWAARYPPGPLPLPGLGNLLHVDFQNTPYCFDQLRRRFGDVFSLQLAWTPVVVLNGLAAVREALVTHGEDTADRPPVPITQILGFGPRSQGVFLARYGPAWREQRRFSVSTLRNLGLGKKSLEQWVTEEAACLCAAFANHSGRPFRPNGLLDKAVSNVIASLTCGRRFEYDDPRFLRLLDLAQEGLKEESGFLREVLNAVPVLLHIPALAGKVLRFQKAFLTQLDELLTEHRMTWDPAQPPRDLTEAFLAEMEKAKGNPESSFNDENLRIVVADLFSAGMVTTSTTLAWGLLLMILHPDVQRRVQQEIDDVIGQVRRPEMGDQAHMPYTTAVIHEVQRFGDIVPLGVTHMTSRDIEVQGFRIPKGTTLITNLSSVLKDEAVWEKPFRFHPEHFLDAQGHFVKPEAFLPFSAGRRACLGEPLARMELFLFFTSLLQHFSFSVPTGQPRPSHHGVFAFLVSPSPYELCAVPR

Data set [4] has as its target T3, Cytochrome P450 2D6. In words: Drug activation in human Hep3B cells assessed as human CYP2D6-mediated drug metabolism-induced cytotoxicity measured as decrease in cell viability at 5.8 uM pre-incubated with BSO for 18 hrs followed by incubation with compound for 3 hrs in presence of NADPH measured after 24 hrs in absence of compound, CYP3A4 and NADPH by cell titer-glo luminescence assay relative to BSO alone. It counts as ADME, cell-based.

The target in data set [5] is T2, Cytochrome P450 3A4. Nature of the data set: Drug activation in human Hep3B cells assessed as human CYP3A4-mediated drug metabolism-induced cytotoxicity measured as decrease in cell viability at 53 uM pre-incubated with BSO for 18 hrs followed by incubation with compound for 3 hrs in presence of NADPH measured after 24 hrs in absence of compound, CYP3A4 and NADPH by cell titer-glo luminescence assay relative to BSO alone. It counts as ADME, cell-based.

In data set [6] the target is T1, Cytochrome P450 2C9. In words: Drug activation in human Hep3B cells assessed as human CYP2C9-mediated drug metabolism-induced cytotoxicity measured as decrease in cell viability at 47.3 uM pre-incubated with BSO for 18 hrs followed by incubation with compound for 3 hrs in presence of NADPH measured after 24 hrs in absence of compound, CYP3A4 and NADPH by cell titer-glo luminescence assay relative to BSO alone. It counts as ADME, cell-based.

For data set [7], the target named is T1, Cytochrome P450 2C9. Nature of the data set: Drug activation in human Hep3B cells assessed as human CYP2C9-mediated drug metabolism-induced cytotoxicity measured as decrease in cell viability at 17.1 uM pre-incubated with BSO for 18 hrs followed by incubation with compound for 3 hrs in presence of NADPH measured after 24 hrs in absence of compound, CYP3A4 and NADPH by cell titer-glo luminescence assay relative to BSO alone. The format is ADME, cell-based.

Data set [8] deals with T3, Cytochrome P450 2D6. In words: Drug activation in human Hep3B cells assessed as human CYP2D6-mediated drug metabolism-induced cytotoxicity measured as decrease in cell viability at 15.6 uM pre-incubated with BSO for 18 hrs followed by incubation with compound for 3 hrs in presence of NADPH measured after 24 hrs in absence of compound, CYP3A4 and NADPH by cell titer-glo luminescence assay relative to BSO alone. The format is ADME, cell-based.

Data set [9] has as its target T2, Cytochrome P450 3A4. In words: Drug activation in human Hep3B cells assessed as human CYP3A4-mediated drug metabolism-induced cytotoxicity measured as decrease in cell viability at 16.3 uM pre-incubated with BSO for 18 hrs followed by incubation with compound for 3 hrs in presence of NADPH measured after 24 hrs in absence of compound, CYP3A4 and NADPH by cell titer-glo luminescence assay relative to BSO alone. The format is ADME, cell-based.

The target in data set [10] is T2, Cytochrome P450 3A4. In words: Drug activation in human Hep3B cells assessed as human CYP3A4-mediated drug metabolism-induced cytotoxicity measured as decrease in cell viability at 14 uM pre-incubated with BSO for 18 hrs followed by incubation with compound for 3 hrs in presence of NADPH measured after 24 hrs in absence of compound, CYP3A4 and NADPH by cell titer-glo luminescence assay relative to BSO alone. It counts as ADME, cell-based.

Data set [11] addresses T1, Cytochrome P450 2C9. In words: Drug activation in human Hep3B cells assessed as human CYP2C9-mediated drug metabolism-induced cytotoxicity measured as decrease in cell viability at 224.2 uM pre-incubated with BSO for 18 hrs followed by incubation with compound for 3 hrs in presence of NADPH measured after 24 hrs in absence of compound, CYP3A4 and NADPH by cell titer-glo luminescence assay relative to BSO alone. It counts as ADME, cell-based.

Data set [12] has as its target T3, Cytochrome P450 2D6. In words: Drug activation in human Hep3B cells assessed as human CYP2D6-mediated drug metabolism-induced cytotoxicity measured as decrease in cell viability at 31.6 uM pre-incubated with BSO for 18 hrs followed by incubation with compound for 3 hrs in presence of NADPH measured after 24 hrs in absence of compound, CYP3A4 and NADPH by cell titer-glo luminescence assay relative to BSO alone. It counts as ADME, cell-based.

For data set [13], the target named is T2, Cytochrome P450 3A4. Nature of the data set: Drug activation in human Hep3B cells assessed as human CYP3A4-mediated drug metabolism-induced cytotoxicity measured as decrease in cell viability at 300 uM pre-incubated with BSO for 18 hrs followed by incubation with compound for 3 hrs in presence of NADPH measured after 24 hrs in absence of compound, CYP3A4 and NADPH by cell titer-glo luminescence assay relative to BSO alone.

Data set [14] concerns the target T3, Cytochrome P450 2D6. In words: Drug activation in human Hep3B cells assessed as human CYP2D6-mediated drug metabolism-induced cytotoxicity measured as decrease in cell viability at 300 uM pre-incubated with BSO for 18 hrs followed by incubation with compound for 3 hrs in presence of NADPH measured after 24 hrs in absence of compound, CYP3A4 and NADPH by cell titer-glo luminescence assay relative to BSO alone.

Data set [15] concerns the target T1, Cytochrome P450 2C9. In words: Drug activation in human Hep3B cells assessed as human CYP2C9-mediated drug metabolism-induced cytotoxicity measured as decrease in cell viability at 71.3 uM pre-incubated with BSO for 18 hrs followed by incubation with compound for 3 hrs in presence of NADPH measured after 24 hrs in absence of compound, CYP3A4 and NADPH by cell titer-glo luminescence assay relative to BSO alone. It counts as ADME, cell-based.

T2 sequence (P08684 whole entry): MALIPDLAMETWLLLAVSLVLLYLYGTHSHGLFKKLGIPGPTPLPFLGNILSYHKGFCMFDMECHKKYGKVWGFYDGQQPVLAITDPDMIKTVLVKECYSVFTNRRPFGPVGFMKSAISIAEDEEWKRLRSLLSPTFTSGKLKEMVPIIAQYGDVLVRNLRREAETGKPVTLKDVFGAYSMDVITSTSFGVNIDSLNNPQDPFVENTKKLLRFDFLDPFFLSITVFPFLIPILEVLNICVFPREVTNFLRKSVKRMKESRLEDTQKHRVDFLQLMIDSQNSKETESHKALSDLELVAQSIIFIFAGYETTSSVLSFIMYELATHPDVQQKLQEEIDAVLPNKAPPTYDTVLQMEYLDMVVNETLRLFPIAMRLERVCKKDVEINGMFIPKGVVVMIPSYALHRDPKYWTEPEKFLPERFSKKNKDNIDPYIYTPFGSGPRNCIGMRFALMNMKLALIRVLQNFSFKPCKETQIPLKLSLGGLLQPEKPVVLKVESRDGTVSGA
T1 sequence (P11712 whole entry): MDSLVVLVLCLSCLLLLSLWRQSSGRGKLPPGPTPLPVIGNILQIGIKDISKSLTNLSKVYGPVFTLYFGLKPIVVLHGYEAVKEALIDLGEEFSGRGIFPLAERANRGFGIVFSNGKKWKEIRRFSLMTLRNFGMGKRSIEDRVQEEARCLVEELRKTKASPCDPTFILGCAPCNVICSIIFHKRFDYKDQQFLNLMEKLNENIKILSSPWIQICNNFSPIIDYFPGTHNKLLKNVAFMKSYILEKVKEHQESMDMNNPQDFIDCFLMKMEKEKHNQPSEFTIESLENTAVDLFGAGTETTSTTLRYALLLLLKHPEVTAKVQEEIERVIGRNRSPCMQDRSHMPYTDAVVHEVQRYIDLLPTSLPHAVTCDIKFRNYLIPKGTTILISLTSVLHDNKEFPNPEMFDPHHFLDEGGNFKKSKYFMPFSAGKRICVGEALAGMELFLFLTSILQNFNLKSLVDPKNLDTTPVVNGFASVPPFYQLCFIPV

Turning to `CC(C)(C)NC(=O)[C@@H]1C[C@@H]2CCCC[C@@H]2CN1C[C@@H](O)[C@H](Cc1ccccc1)NC(=O)[C@H](CC(N)=O)NC(=O)c1ccc2ccccc2n1`, the “fold change (FC)” value amounted to 0.8 at Cytochrome P450 2C9 [1], 0.8 on Cytochrome P450 3A4 [2] and 0.7 at Cytochrome P450 2D6 [3].
For `CCc1oc2ccccc2c1C(=O)c1ccc(O)cc1` [BENZARONE], the “fold change (FC)” value stood at 7.5 at Cytochrome P450 2D6 [4], 0.8 at Cytochrome P450 3A4 [5] and 0.9 at Cytochrome P450 2C9 [6].
In the case of `CCc1oc2ccccc2c1C(=O)c1cc(I)c(O)c(I)c1` [BENZIODARONE], the “fold change (FC)” value on Cytochrome P450 2C9 [7] is 2.1; on Cytochrome P450 2D6 [8], 2.3; on Cytochrome P450 3A4 [9], 2.2.
For `CC(O)(CS(=O)(=O)c1ccc(F)cc1)C(=O)Nc1ccc(C#N)c(C(F)(F)F)c1` (stereo not given) [BICALUTAMIDE], the “fold change (FC)” value at Cytochrome P450 3A4 [10] amounted to 1.7; at Cytochrome P450 2C9 [11], 0.1; on Cytochrome P450 2D6 [12], 0.7.
Turning to `CC(C(=O)O)c1cccc(Oc2ccccc2)c1` (stereo not given) [FENOPROFEN], the FC on Cytochrome P450 3A4 [13] and on Cytochrome P450 2D6 [14] was 1 in each case. The “fold change (FC)” value on Cytochrome P450 2C9 [15] amounted to 4.2.

(Values after ChEMBL document CHEMBL4477225, “Development of a cell viability assay to assess drug metabolite structure-toxicity relationships” (Bioorg Med Chem Lett, 2016).)
